The source made the active and inactive calls. No cut-off for these calls is given here.
What was measured:
A549 = assay: Antiproliferative activity against human A549 cells assessed as cell growth inhibition after 72 hrs by sulforhodamine B assay; format: functional, cell-based; settings: A549, 72 h
MDA-MB-231 = assay: Antiproliferative activity against human MDA-MB-231 cells assessed as cell growth inhibition after 72 hrs by sulforhodamine B assay; format: functional, cell-based; settings: MDA-MB-231, 72 h
KB = assay: Antiproliferative activity against human KB cells assessed as cell growth inhibition after 72 hrs by sulforhodamine B assay; format: functional, cell-based
[1] = Antiproliferative activity against human KB-VIN cells assessed as cell growth inhibition after 72 hrs by sulforhodamine B assay; format: functional, cell-based; settings: KBVIN
MCF7 [2] = assay: Antiproliferative activity against human MCF7 cells assessed as cell growth inhibition after 72 hrs by sulforhodamine B assay; format: functional, cell-based; settings: MCF7, 72 h
[3] = biological target: DNA topoisomerase 2-alpha (Homo sapiens) (UniProt P11388); assay: Inhibition of recombinant human topoisomerase-2alpha assessed as decrease in relaxation/nicking of kinetoplast DNA using kDNA as substrate at 100 uM after 15 mins by ethidium bromide staining based agarose gel electrophoresis analysis
DNA topoisomerase 2-alpha (Homo sapiens), sequence (P11388 whole entry): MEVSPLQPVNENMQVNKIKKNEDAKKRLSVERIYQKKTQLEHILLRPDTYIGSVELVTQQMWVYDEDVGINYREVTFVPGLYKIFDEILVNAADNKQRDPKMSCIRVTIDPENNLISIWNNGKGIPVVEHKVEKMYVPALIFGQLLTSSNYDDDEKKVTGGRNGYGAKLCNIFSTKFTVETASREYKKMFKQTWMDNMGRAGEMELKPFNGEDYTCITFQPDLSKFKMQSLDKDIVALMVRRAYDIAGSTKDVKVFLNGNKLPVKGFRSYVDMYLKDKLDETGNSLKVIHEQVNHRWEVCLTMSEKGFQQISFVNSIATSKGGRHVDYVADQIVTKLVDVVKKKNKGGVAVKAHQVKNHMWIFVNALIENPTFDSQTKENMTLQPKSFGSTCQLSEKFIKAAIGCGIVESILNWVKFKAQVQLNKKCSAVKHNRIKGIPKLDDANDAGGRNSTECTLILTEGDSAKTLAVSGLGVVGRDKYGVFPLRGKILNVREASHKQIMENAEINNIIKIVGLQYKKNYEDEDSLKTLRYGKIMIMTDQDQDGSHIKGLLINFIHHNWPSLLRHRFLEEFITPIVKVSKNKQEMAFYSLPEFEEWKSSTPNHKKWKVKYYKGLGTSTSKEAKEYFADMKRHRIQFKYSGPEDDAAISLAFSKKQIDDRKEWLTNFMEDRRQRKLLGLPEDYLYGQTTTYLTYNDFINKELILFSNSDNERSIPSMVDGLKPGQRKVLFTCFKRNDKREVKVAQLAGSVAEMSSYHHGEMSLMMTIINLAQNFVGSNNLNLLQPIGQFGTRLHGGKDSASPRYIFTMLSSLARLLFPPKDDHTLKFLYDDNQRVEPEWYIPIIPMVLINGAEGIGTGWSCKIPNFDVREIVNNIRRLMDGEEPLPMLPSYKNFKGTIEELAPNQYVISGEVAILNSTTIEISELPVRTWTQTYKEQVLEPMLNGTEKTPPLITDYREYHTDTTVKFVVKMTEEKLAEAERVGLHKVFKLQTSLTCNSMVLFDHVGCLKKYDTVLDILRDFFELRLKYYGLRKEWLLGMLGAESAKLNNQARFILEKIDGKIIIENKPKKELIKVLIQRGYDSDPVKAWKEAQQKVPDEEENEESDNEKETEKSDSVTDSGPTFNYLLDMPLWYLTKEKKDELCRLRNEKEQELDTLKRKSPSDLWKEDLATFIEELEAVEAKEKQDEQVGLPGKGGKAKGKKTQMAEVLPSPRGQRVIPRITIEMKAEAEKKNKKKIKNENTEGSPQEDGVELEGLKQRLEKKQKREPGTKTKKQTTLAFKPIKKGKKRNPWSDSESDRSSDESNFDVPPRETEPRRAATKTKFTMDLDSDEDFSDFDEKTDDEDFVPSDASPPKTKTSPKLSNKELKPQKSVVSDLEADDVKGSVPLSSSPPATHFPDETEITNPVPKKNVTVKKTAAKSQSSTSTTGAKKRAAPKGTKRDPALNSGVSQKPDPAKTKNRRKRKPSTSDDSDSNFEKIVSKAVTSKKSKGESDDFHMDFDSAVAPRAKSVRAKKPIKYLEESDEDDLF

MCF7 [4] = assay: Inhibition of colony formation in human MCF7 cells at 10 to 40 uM of compound exposure followed by compound washout and subsequent incubation for 3 weeks by crystal violet staining based assay; format: functional, cell-based; settings: dose microM 10-40
[5] = biological target: T1, DNA topoisomerase 1 (Homo sapiens) (UniProt P11387); assay: Inhibition of topoisomerase 1 in human MCF7 cells nuclear extract assessed as decrease in relaxation/nicking of supercoiled DNA using supercoiled DNA as substrate at 40 uM after 1 hr by ethidium bromide staining based agarose gel electrophoresis analysis; format: subcellular; settings: Nucleus
T1 sequence (whole entry): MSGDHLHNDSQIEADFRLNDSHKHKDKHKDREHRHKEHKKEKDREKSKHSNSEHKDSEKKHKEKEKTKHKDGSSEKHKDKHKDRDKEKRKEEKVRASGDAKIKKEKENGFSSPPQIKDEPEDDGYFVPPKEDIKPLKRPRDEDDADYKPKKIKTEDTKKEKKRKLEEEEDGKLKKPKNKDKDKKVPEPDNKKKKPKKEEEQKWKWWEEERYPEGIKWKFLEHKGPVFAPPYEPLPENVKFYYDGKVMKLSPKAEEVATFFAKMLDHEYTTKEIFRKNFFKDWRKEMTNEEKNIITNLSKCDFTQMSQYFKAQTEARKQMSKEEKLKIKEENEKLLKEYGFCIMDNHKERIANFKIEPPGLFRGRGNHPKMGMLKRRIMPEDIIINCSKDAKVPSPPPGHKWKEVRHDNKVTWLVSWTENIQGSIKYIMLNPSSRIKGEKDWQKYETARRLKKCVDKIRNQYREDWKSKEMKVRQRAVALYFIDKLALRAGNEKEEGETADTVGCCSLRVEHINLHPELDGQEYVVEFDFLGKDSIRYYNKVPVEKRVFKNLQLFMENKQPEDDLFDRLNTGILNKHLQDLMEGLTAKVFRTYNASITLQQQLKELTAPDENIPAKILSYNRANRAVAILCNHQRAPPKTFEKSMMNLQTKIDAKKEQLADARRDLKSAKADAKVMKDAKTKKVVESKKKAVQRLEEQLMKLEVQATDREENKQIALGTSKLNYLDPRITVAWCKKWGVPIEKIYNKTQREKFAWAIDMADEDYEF

[6] = biological target: DNA topoisomerase 2-alpha (Homo sapiens) (UniProt P11388); assay: Inhibition of topoisomerase-2alpha in human MCF7 cells nuclear extract assessed as decrease in relaxation/nicking of kinetoplast DNA using kDNA as substrate at 40 uM after 15 mins by ethidium bromide staining based agarose gel electrophoresis analysis; format: subcellular; settings: Nucleus
[7] = biological target: T1, DNA topoisomerase 1 (Homo sapiens); assay: Inhibition of recombinant human topoisomerase 1 assessed as decrease in relaxation/nicking of supercoiled DNA using supercoiled DNA as substrate at 10 uM after 1 hr by ethidium bromide staining based agarose gel electrophoresis analysis
[8] = biological target: T1, DNA topoisomerase 1 (Homo sapiens); assay: Inhibition of recombinant human topoisomerase 1 assessed as decrease in relaxation/nicking of supercoiled DNA using supercoiled DNA as substrate at 30 uM after 1 hr by ethidium bromide staining based agarose gel electrophoresis analysis
MCF7 [9] = assay: Induction of apoptosis in human MCF7 cells at 40 uM incubated for 24 to 72 hrs by Annexin V-FITC/propidium iodide staining-based flow cytometric analysis; format: functional, cell-based; settings: time hrs 24-72

Q: For `C=C(C)[C@@H]1CC[C@]2(C(=O)O)CC[C@]3(C)[C@H](CC[C@@H]4[C@@]5(C)C[C@H](F)[C@H](O)C(C)(C)[C@@H]5CC[C@]43C)[C@@H]12`, which IC50 (A549) is on record?
A: 4.5 µM

Q: And the IC50 (MDA-MB-231)?
A: 12.4 µM

Q: What about the IC50 (KB) of the same molecule?
A: 6.1 µM

Q: And the IC50 [1]?
A: 6 µM

Q: And the IC50 (MCF7 [2])?
A: 14.4 µM

Q: For `C=C(C)[C@@H]1CC[C@]2(C(=O)OC)CC[C@]3(C)[C@H](CC[C@@H]4[C@@]5(C)CC(F)C(=O)C(C)(C)[C@@H]5CC[C@]43C)[C@@H]12` (stereo partly drawn), which IC50 (A549) is on record?
A: > 10 µM

Q: And the IC50 (MDA-MB-231)?
A: > 10 µM

Q: And the IC50 (KB)?
A: > 10 µM

Q: What about the IC50 [1] of the same molecule?
A: > 10 µM

Q: And the IC50 (MCF7 [2])?
A: > 10 µM

Q: For `COc1cc([C@@H]2c3cc4c(cc3[C@@H](O[C@@H]3O[C@@H]5CO[C@@H](C)O[C@H]5[C@H](O)[C@H]3O)[C@H]3COC(=O)[C@H]23)OCO4)cc(OC)c1O`, which inhibition [3] is on record?
A: Active

Q: Which results are given for `C=C(C)[C@@H]1CC[C@]2(C(=O)OC)CC[C@]3(C)[C@H](CC[C@@H]4[C@@]5(C)CC(F)[C@H](OC(=O)CC(C)(C)C(=O)O)C(C)(C)[C@@H]5CC[C@]43C)[C@@H]12` (stereo partly drawn)?
A: IC50 (A549): > 10 µM; IC50 (MDA-MB-231): > 10 µM; IC50 (KB): > 10 µM; IC50 [1]: > 10 µM; IC50 (MCF7 [2]): > 10 µM

Q: Which IC50 (A549) does the source give for `C=C(C)[C@@H]1CC[C@]2(C(=O)OCc3ccc(Cl)cc3)CC[C@]3(C)[C@H](CC[C@@H]4[C@@]5(C)C[C@@H](F)C(=O)C(C)(C)[C@@H]5CC[C@]43C)[C@@H]12` here?
A: > 40 µM

Q: What about the IC50 (MDA-MB-231) of the same molecule?
A: > 40 µM

Q: What about the IC50 (KB) of the same molecule?
A: > 40 µM

Q: And the IC50 [1]?
A: > 40 µM

Q: And the IC50 (MCF7 [2])?
A: > 40 µM

Q: With `C=C(C)[C@@H]1CC[C@]2(C(=O)OC)CC[C@]3(C)[C@H](CC[C@@H]4[C@@]5(C)CC(F)[C@H](O)C(C)(C)[C@@H]5CC[C@]43C)[C@@H]12` (mixture of isomers) as the molecule, how does the IC50 (A549) read?
A: > 10 µM

Q: And the IC50 (MDA-MB-231)?
A: > 10 µM

Q: What about the IC50 (KB) of the same molecule?
A: > 10 µM

Q: And the IC50 [1]?
A: > 10 µM

Q: What about the IC50 (MCF7 [2]) of the same molecule?
A: > 10 µM

Q: Which results are given for `C=C(C)[C@@H]1CC[C@]2(C(=O)O)CC[C@]3(C)[C@H](CC[C@@H]4[C@@]5(C)CC[C@H](O)C(C)(C)[C@@H]5CC[C@]43C)[C@@H]12` [BETULINIC ACID]?
A: IC50 (A549): 29.5 µM; IC50 (MDA-MB-231): > 40 µM; IC50 (KB): 28.7 µM; IC50 [1]: 30.7 µM; IC50 (MCF7 [2]): > 40 µM; inhibition (MCF7 [4]): Active; inhibition [5]: inactive; inhibition [6]: inactive; inhibition [7]: inactive; inhibition [8]: Active; inhibition [3]: inactive; Activity (MCF7 [9]): Active

Q: What does the source list for `C=C(C)[C@@H]1CC[C@]2(C(=O)OCc3ccc(Cl)cc3)CC[C@]3(C)[C@H](CC[C@@H]4[C@@]5(C)CCC(=O)C(C)(C)[C@@H]5CC[C@]43C)[C@@H]12`?
A: IC50 (A549): > 40 µM; IC50 (MDA-MB-231): > 40 µM; IC50 (KB): > 40 µM; IC50 [1]: > 40 µM; IC50 (MCF7 [2]): > 40 µM

Reference: ChEMBL document CHEMBL4665654, “Design, synthesis and evaluation of antiproliferative activity of fluorinated betulinic acid” (Bioorg Med Chem, 2019)
